In patent US7943759B2, “3-β-D-ribofuranosylthiazolo[4-5-d]pyrimidine nucleosides and uses thereof” (Anadys Pharmaceuticals, Inc., priority 2001, dated 2011):
Structures can show the parent of a compound that is named as a salt. Where two headings read alike, the source gives them in different places. Each block holds one molecule with its values, some of them ahead of it.

Columns and labels:
Caco-2 cells = details: human
Procedure: In vitro drug transport assays using differentiated and P-glycoprotein-expressing Caco2 cell monolayers are widely used to predict absorption rates of candidate drug compounds across the intestinal epithelial cell barrier. See, e.g., Hilgers, A. R. et al., Pharm.
Caco-2 cells (obtained from ATCC) are grown to confluency on permeable membranes in chambers allowing access to both the apical and basolateral sides of the membrane. The intact nature of the resulting cellular membrane is assessed using transepithelial electrical resistance. The test compound is added at a known concentration to the apical side of the membrane and the rate of appearance of the compound on the basolateral side of the membrane is assessed by analysis using either HPLC or LC-MS/MS.

[1] = system: Cynomolgus monkey hepatocytes; details: 2 h, 10 μm/ml
Procedure: Hepatocyes often are used to assess the degree to which a compound may be transformed in the body of an animal, and it is known that such transformations may vary with hepatocytes from different species in a way that reflects metabolism in the whole animal.
Cynomolgus monkey hepatocytes were purchased from a commercial supplier and used within 48 hours of preparation. Compounds were prepared in culture media at a concentration of 10 μm/ml and incubated in a standard system with 1,000,000 viable hepatocytes per ml for 2 hours at 37 degrees. The extent of conversion at the end of the incubation period was assessed by measuring 1 by LC-MS/MS.

[2] = Toxicology studies in dogs: GI tolerance (emesis, loose stool, GI lesions) and isatoribine exposure
Procedure: (§1) Formal toxicology studies of intravenously administered isatoribine and orally administered isatoribine and val-isatoribine were conducted in beagle dogs.
(§2) In each case the compound was administered as a solution, by gavage or by intravenous infusion. Multiple parameters were assessed, as is customary in a toxicology study. In the studies providing higher potential exposure to isatoribine, the plasma concentration of isatoribine was assessed by a LC/MS method.

[3] = dog, in vivo, iv, 12.5 mg/kg
Procedure: as §1, §2

[4] = system: Interferon Alpha (Mu-IFN-α); assay: Murine interferon alpha (Mu-IFN-α) in plasma of mice after oral dosing; format: in vivo; details: for mice with detectable interferon in plasma, of the mice used: mice of Tables 1, 2 and 3, oral dosing
Excerpt: The normal mouse provides a useful system for the assessment of the degree to which the inventions described herein provide material improvement in the oral delivery of 1 (isatoribine). Not only can one measure the plasma concentrations of isatoribine arising from oral administration of the said prodrug(s) but also the extensive immunological research conducted in the mouse has provided reagents suitable for measuring the levels of interferon alpha, a cytokine of interest reflecting one of the desired biologic activities of isatoribine. […] Table 1 records the results of an assay for murine interferon alpha in the plasma of mice that were dosed two times with isatoribine, formulated in bicarbonate, at a level of 50 mg/kg by the oral route. […] Table 2 records the results of assays for murine interferon alpha in the plasma of mice that first were dosed with bicarbonate and then four hours later were dosed orally with isatoribine, formulated in bicarbonate, at a level of 50 mg/kg. Interferon was reported in the plasma from four mice, including two that had received the bicarbonate vehicle dose. […] Table 3 records the results of assays for murine interferon alpha in the plasma of mice that were dosed orally with val-isatoribine, dissolved in bicarbonate, at a dose that is equivalent to 50/mg/kg of isatoribine on a molar basis. […] Interferon was detected in all mice assayed at a given time point, indicating the reliability of the effect following val-isatoribine administration. […] The data tabulated in Tables 1, 2, and 3 may be also considered from the point of view of the incidence of measurable interferon levels.

[5] = cited from earlier work
[6] = Systemic exposure to isatoribine after oral administration to beagle dogs (plasma HPLC-MS/MS); format: in vivo; details: at both 10 and 50 mg/kg dose
Procedure: The effect of a prodrug (val-isatoribine, 3) on the systemic exposure to isatoribine (1) after oral administration to beagle dogs was investigated. Isatoribine was prepared in sodium bicarbonate solution.
Four male and four female adult beagle dogs weighing between 15 to 27 kg and approximately 1-2 years old were used at the beginning of the study. The animals were divided into 2 groups of 2 males and 2 females each. The test material was administered by gavage on Days 1 and 8, allowing a 7-day washout period between administrations. Blood samples (2 mL) were collected from each animal at predose, 15, 30 minutes, 1, 2, 3, 4, 6, 8 and 10 hours into lithium heparin tubes after each dosing. The plasma was frozen at −70° C. until analysis. The plasma was analyzed for isatoribine by an HPLC-MS/MS assay.
The ratios for the key pharmacokinetic parameters defining the maximum concentration (Cmax) and total exposure as measured by the area under the time-concentration curve (AUC) for the prodrug and the bicarbonate solution at the 50 mg/kg dose are summarized in Table 6.

[7] = IV isatoribine, 25 mg/kg applied dose
[8] = dogs, oral isatoribine, 2.5 mg/kg isatoribine equivalent applied dose
[9] = oral val-isatoribine, 8.1 mg/kg isatoribine equivalent applied dose
[10] = oral val-isatoribine, 16 mg/kg isatoribine equivalent applied dose
[11] = oral val-isatoribine, 32 mg/kg isatoribine equivalent applied dose
[12] = oral val-isatoribine, 64 mg/kg isatoribine equivalent applied dose

SMILES: CC(C)[C@H](N)C(=O)OC[C@H]1O[C@@H](n2c(=O)sc3c(O)nc(N)nc32)[C@H](O)[C@@H]1O (as salt: hydrochloride) [Compound 3, 5-Amino-3-(5′-O-L-valinyl-β-D-ribofuranosyl)thiazolo[4,5-d]pyrimidine-2,7-dione Dihydrochloride]
melting point: 166 to 168 °C (dec.)

SMILES: CC(=O)OC[C@H]1O[C@@H](n2c(=O)sc3cnc(N)nc32)[C@H](OC(C)=O)[C@@H]1OC(C)=O [Compound 78, 5-Amino-3-(2′,3′,5′-tri-O-acetyl-β-D-ribofuranosyl)-3H-thiazolo[4,5-d]pyrimidin-2-one]
Caco2 transport compared with 79 (result in words) (Caco-2 cells): significantly improved transport over 79
Monkey Hepatocytes [1]: 20%
conversion to 1 compared with 79 (result in words) [1]: more extensively converted to 1 than is 79

SMILES: Nc1ncc2sc(=O)n([C@@H]3O[C@H](CO)[C@@H](O)[C@H]3O)c2n1 [Compound 79, 5-Amino-3-β-D-ribofuranosyl-3H-thiazolo-[4,5-d]pyrimidin-2-one]
Monkey Hepatocytes [1]: 10%
melting point: 220 °C (dec.)

SMILES: Nc1nc2c(sc(=O)n2[C@@H]2O[C@H](CO)[C@@H](O)[C@H]2O)c(=O)[nH]1 [Compound 1, 5-amino-3-β-D-ribofuranosylthiazolo[4,5-d]pyrimidine-2,7-dione, reference compound]
Emesis or loose stool [2, 7]: Neg.
GI lesions or irritation [2, 7]: Neg.
GI lesions or irritation ([2]; IV isatoribine, 50 mg/kg applied dose): Neg.
GI lesions or irritation ([2]; IV isatoribine, 100 mg/kg applied dose): Neg.
GI tract lesions at necropsy or histopathologic evaluation (result in words) ([2]; intravenously administered isatoribine): No lesions were seen in the GI tract
Emesis or loose stool [3]: Neg.
GI lesions or irritation [3]: Neg.
interferon in plasma (result in words) ([4]; mice dosed two times with isatoribine in bicarbonate, 50 mg/kg oral, interval of four hours): no interferon was measurable
mice with detectable interferon in plasma, of the mice used [4]: 4 of the 114
Emesis or loose stool [5, 8]: Neg.
GI lesions or irritation [5, 8]: Neg.
GI lesions or irritation ([5]; dogs, oral isatoribine, 5 mg/kg isatoribine equivalent applied dose): Neg.
dogs with multiple, scattered red lesions on the intestinal mucosa (gross histopathologic evaluation) ([5]; orally administered isatoribine at 10 mg/kg): four of eight dogs

SMILES: CC(=O)O[C@@H]1[C@H](OC(C)=O)[C@@H](CO)O[C@H]1n1c(=O)sc2cnc(N)nc21 [Compound 89, 5-Amino-3-(2′,3′-di-O-acetyl-β-D-ribofuranosyl)-3H-thiazolo[4,5-d]pyrimidin-2-one]
Caco2 transport compared with 79 (result in words) (Caco-2 cells): significantly improved transport over 79
Monkey Hepatocytes [1]: 45%
conversion to 1 compared with 79 (result in words) [1]: more extensively converted to 1 than is 79

SMILES: CN[C@H](C(=O)OC[C@H]1O[C@@H](n2c(=O)sc3c(O)nc(N)nc32)[C@H](O)[C@@H]1O)C(C)C (as salt: hydrochloride) [Compound 11, 5-Amino-3-(5′-O-[α-L-N-methylvalinyl]-β-D-ribofuranosyl)thiazolo[4,5-d]pyrimidine-2,7-dione Hydrochloride]
melting point: > 180 °C (dec.)

SMILES: CC(C)[C@H](N)C(=O)OC[C@H]1O[C@@H](n2c(=O)sc3c(O)nc(N)nc32)[C@H](O)[C@@H]1O [Compound 3, 5-Amino-3-(5′-O-L-valinyl-β-D-ribofuranosyl)thiazolo[4,5-d]pyrimidine-2,7-dione Dihydrochloride]
Emesis or loose stool [2, 9]: Neg.
GI lesions or irritation [2, 9]: Neg.
Emesis or loose stool [2, 10]: Neg.
GI lesions or irritation [2, 10]: Neg.
Emesis or loose stool [2, 11]: Neg.
GI lesions or irritation [2, 11]: Neg.
Emesis or loose stool [2, 12]: Neg.
GI lesions or irritation [2, 12]: Neg.
GI lesions or irritation ([2]; oral val-isatoribine, 130 mg/kg isatoribine equivalent applied dose): Neg.
GI lesions or irritation ([2]; oral val-isatoribine, 260 mg/kg isatoribine equivalent applied dose): Neg.
GI lesions or irritation ([2]; oral val-isatoribine, 390 mg/kg isatoribine equivalent applied dose): Neg.
GI lesions (result in words) ([2]; orally administered val-isatoribine): No GI lesions were found
interferon in plasma (result in words) ([4]; mice dosed orally with val-isatoribine in bicarbonate, equivalent to 50 mg/kg isatoribine): interferon was readily measurable at 1.0 hour, 1.5 hours, and 2.0 hours after dosing
mice with detectable interferon in plasma, of the mice used [4]: 10 of the 30
increase of the magnitude of both the average and peak interferon response over isatoribine ([4]; mice, oral dosing, Tables 1-3): twofold
maximum concentrations of isatoribine after oral dosing compared to isatoribine itself [6]: at least doubled

Now from value to molecule:

melting point: > 112 °C
SMILES: CN(C)c1nc(N)nc2c1sc(=O)n2[C@@H]1O[C@H](CO)[C@@H](O)[C@H]1O [Compound 20, 5-Amino-7-dimethylamino-3-β-D-ribofuranosylthiazolo[4,5-d]pyrimidin-2-one]

melting point: > 155 °C (dec.)
SMILES: Nc1nc(N)c2sc(=O)n([C@@H]3O[C@H](CO)[C@@H](O)[C@H]3O)c2n1 [Compound 15, 5,7-Diamino-3-β-D-ribofuranosylthiazolo[4,5-d]pyrimidin-2-one]

melting point: > 108 °C (dec.)
SMILES: Nc1nc(NC2CCCC2)c2sc(=O)n([C@@H]3O[C@H](CO)[C@@H](O)[C@H]3O)c2n1 [Compound 22, 5-Amino-7-cyclopentylamino-3-β-D-ribofuranosylthiazolo[4,5-d]pyrimidin-2-one]

melting point: > 108 °C
SMILES: CNc1nc(N)nc2c1sc(=O)n2[C@@H]1O[C@H](CO)[C@@H](O)[C@H]1O [Compound 18]

melting point: > 112.4 °C (dec.)
SMILES: Nc1nc(N2CCCC2)c2sc(=O)n([C@@H]3O[C@H](CO)[C@@H](O)[C@H]3O)c2n1 [Compound 23, 5-Amino-7-pyrrolidino-3-β-D-ribofuranosylthiazolo[4,5-d]pyrimidin-2-one]

melting point: > 160 °C (dec.)
SMILES: COc1nc(N)nc2c1sc(=O)n2[C@@H]1O[C@H](CO)[C@@H](O)[C@H]1O [Compound 14, 5-Amino-3-β-D-ribofuranosyl-7-methoxy-thiazolo[4,5-d]pyrimidin-2-one]
